Laboratory results reported in article PMC9323733, “Efficacy of Vafidemstat in Experimental Autoimmune Encephalomyelitis Highlights the KDM1A/RCOR1/HDAC Epigenetic Axis in Multiple Sclerosis” (Pharmaceutics, 2022).
pEC50, pIC50: −log10 of the molar value.

How the values were obtained:
[1] = system: C57BL/6 mice with chronic EAE; test: Chronic EAE induced by MOG35–55, clinical score; format: in vivo, mouse
Procedure: Mice also received i.p. injections of 200 ng of pertussis toxin on days 0 and 2 [32]. Immunized mice were randomly distributed in different groups. […] MPTP is a prodrug which is converted to the neurotoxin 1-methyl-4-phenylpyridinium (MPP+) by MAO-B in vivo.
Compounds were administered once daily for five consecutive days in two cycles, from day 12 to 16 and from day 19 to 23 post-immunization. […] HPβCD was included to facilitate dissolution. Mice were scored daily for signs of EAE according to the following clinical scoring system: 0, no clinical signs; 0.5, partial loss of tail tonicity; 1, complete loss of tail tonicity; 2, flaccid tail and abnormal gait; 3, complete hind leg paralysis; 4, hind leg paralysis with hind body paresis; 5, hind and foreleg paralysis; and 6, death. Intermediate phenotypes were scored as a half integer. Animals were sacrificed when they kept a score of 5 more than 24 h. Investigators which administered the compounds and scored the animals were blinded to the treatments.

KDM1A = KDM1A (Homo sapiens, UniProt O60341); test: In vitro potency, KDM1A inhibition; format: biochemical
human S1P1 receptor = biological target: T1, human S1P1 receptor (Homo sapiens, UniProt P21453); test: CellKey impedance assay in CHO cells, agonistic and antagonistic effect; format: cell-based
T1 construct: host or cells: CHO cells
T1 sequence (P21453 whole entry): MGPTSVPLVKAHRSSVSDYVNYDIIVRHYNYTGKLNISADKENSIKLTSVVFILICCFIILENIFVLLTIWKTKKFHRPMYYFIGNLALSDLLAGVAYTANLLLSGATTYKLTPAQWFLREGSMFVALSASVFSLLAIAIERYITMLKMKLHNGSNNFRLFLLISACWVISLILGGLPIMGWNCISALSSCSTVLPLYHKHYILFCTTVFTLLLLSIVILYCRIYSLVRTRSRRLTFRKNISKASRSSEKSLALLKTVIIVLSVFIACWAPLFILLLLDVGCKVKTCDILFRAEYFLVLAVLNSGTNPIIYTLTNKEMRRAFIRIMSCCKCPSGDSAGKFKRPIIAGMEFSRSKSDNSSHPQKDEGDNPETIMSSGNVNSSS
Procedure: Cell on impedance modulation, using the CellKey (Cellular Dielectric Spectroscopy) detection method (CellKey 96, MDS Sciex, Concord, ON, Canada) at Eurofins Pharma Discovery Services (Celle-Lévescault, France). CHO cells were seeded onto a 96-well plate at 15.104 cells/well in HBSS buffer (Invitrogen), 20 mM HEPES (Invitrogen), 10% FCS (Invitrogen), and 0.1% BSA (Sigma), allowed to equilibrate for 60 min at 28 °C. DMSO solutions of compounds were diluted in HBSS and 0.1% BSA. Plates were placed onto the system, and measurements were made at a temperature of 28 °C. To measure the agonistic effect, compounds and controls in duplicate were added simultaneously to all of the wells using an integrated fluidics system. Impedance measurements were monitored for 10 min after ligand addition. […] To measure the antagonistic effect, compounds and controls in duplicate were pre-incubated for 15 min before the addition of the reference agonist S1P at 0.01 µM (EC80). Impedance measurements were monitored for 10 min.
Evaluation of the agonistic (a) and antagonist (b) effect of the compounds on the human S1P1 receptor. […] Data are expressed as percentage of control (no compound) activity, n = 2. TSA was used as a control; (d) Cellular HDAC activity assay. […] SAHA was used as a control. Ponceau S staining was used as loading control. Veh: Vehicle. […] TSA: Trichostatin A. SAHA: suberoylanilide hydroxamic acid.

SH-SY5Y cells = test: Human H3 acetylation assay (Western blot), cellular HDAC activity; format: cell-based; conditions: 1 and 0.1 µM, 2 and 6 h
Procedure: Human H3 acetylation assays: for the determination of global and K9-specific acetylation levels, 500,000 SH-SY5Y cells were seeded in 6-well plates in DMEM/F12 1:1 (Sigma), supplemented with 2 mM glutamine (LabClinics) and 10% FBS (Sigma) and incubated at 37 °C and 5% CO2 in a humid atmosphere. […] After 2 and 6 h of treatment, cells were harvested and centrifuged at 250× g for 4 min at room temperature and cell pellets used for total histone extraction with EpiQuik Total Histone Extraction Kit (Epigentek, Farmingdale, NY, USA) following manufacturer’s instructions. 1 µg of histone extracts were run in MOPS buffer in 12% PAGE (Life Technologies, Carlsbad, CA, USA) and transferred with the iBlot system to nitrocellulose membranes. Transferred blots were stained with the Ponceau S solution (Sigma) and scanned with an Epson Perfection V600 Photo Scanner. Membranes were blocked in blocking buffer (5% skimmed milk in PBS-Tween 0.1%) for 1 h at room temperature, and after blocking blots were incubated with rabbit polyclonal anti-H3K9Ac (1:2000 dilution, Abcam, Cambridge, UK) and rabbit polyclonal anti-H3ac (K9 + K14 + K18 + K23 + K27) (1:2000 dilution, Abcam) overnight at 4 °C in ablocking buffer. […]

recombinant HDAC2 = biological target: T2, recombinant HDAC2 (Homo sapiens, UniProt Q92769); test: HDAC2 fluorimetric biochemical assay
T2 construct: purchased BPS Bioscience 50002
T2 sequence (Q92769 whole entry): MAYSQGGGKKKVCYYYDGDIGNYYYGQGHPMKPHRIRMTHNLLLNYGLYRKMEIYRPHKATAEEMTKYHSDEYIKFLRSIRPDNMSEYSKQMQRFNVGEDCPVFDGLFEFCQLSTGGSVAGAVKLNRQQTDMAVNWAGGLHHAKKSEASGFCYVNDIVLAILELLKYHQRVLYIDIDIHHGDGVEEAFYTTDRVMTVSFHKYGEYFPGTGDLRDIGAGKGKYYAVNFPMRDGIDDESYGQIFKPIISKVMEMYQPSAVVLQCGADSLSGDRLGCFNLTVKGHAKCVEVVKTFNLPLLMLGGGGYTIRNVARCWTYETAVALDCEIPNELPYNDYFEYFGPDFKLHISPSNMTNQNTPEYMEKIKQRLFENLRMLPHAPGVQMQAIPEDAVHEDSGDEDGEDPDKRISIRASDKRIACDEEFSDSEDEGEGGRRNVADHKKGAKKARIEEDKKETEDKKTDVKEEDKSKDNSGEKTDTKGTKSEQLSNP
Procedure: HDAC2 activity was determined using a fluorimetric assay at BPS Bioscience (San Diego, CA, USA). Compounds were dissolved in DMSO (Sigma), and serial dilutions were further diluted in HDAC assay buffer (BPS). These working solutions were incubated in duplicate at room temperature for 3 h in a mixture containing HDAC assay buffer, BSA (Fisher Scientific), and recombinant HDAC2 (BPS). The enzymatic reactions were initiated by the addition of a fluorogenic, acetylated peptide substrate (BPS) and proceeded for 30 min at 37 °C. Then, HDAC assay developer (BPS) was added, and after further incubation at room temperature, fluorescence intensity was measured at an excitation of 360 nm and an emission of 460 nm using a Tecan Infinite M1000 microplate reader. Trichostatin A (TSA, Selleckchem, Houston, TX, USA) was used as a reference inhibitor.
For the biochemical assays, the fluorescence signal relative to the background (assay mixture in the absence of the enzyme) was subtracted from each fluorescent intensity data. Activity in the presence of compound was expressed as a percentage of fluorescence intensity in the absence of the compound.

**Q.** With `C#CCN[C@@H]1CCc2ccccc21` [rasagiline, reference compound] as the molecule, how does the “mice with no or only mild clinical signs at the end of the study” value ([1]; EAE experiment 2) read?
**A.** 44%

**Q.** What about the “effect on clinical course / disease severity” value ([1]; EAE experiment 2 (mild), p.o. ORY-2001 0.05, 0.5, 1 mg/kg, ORY-LSD1 90, 180 µg/kg, rasagiline 3 mg/kg) of the same molecule?
**A.** showed no overall protective effect

**Q.** What about the “animals with severe signs (maximum clinical score 3.5–6)” value ([1]; EAE experiment 2, highest dose tested) of the same molecule?
**A.** 33%

**Q.** What about the “onset of clinical signs” value ([1]; EAE experiment 2, rasagiline 3 mg/kg) of the same molecule?
**A.** slight delay of the onset of the clinical signs

**Q.** And the pIC50 (KDM1A)?
**A.** < 4.00

**Q.** Which “EC80, reference agonist” value (human S1P1 receptor; concentration used in antagonist mode) does the source give for `CCCCCCCCCCCCC/C=C/[C@@H](O)[C@@H](N)COP(=O)(O)O` [S1P] here?
**A.** 10 nM

**Q.** What about the pEC50 (human S1P1 receptor; impedance, agonistic effect, read-out: EC50, reference agonist) of the same molecule?
**A.** 9.00

**Q.** `CCCCCCCCc1cccc(NC(=O)[C@H](N)COP(=O)(O)O)c1` [VPC23019] was tested. Which pIC50 (human S1P1 receptor; impedance, vs S1P at 0.01 µM, read-out: IC50, reference antagonist) did it give?
**A.** 7.57

**Q.** For `CCCCCCCCc1ccc(CC[C@](N)(CO)COP(=O)(O)O)cc1` [FTY720-P, Fingolimod Phosphate], which “impact on cellular HDAC activity (acetylated H3 or H3K9 levels)” value (SH-SY5Y cells) is on record?
**A.** unable to confirm the previous studies reporting that FTY720 or FTY720-P had any significant impact

**Q.** What about the “impact on recombinant HDAC2 activity” value (recombinant HDAC2) of the same molecule?
**A.** unable to confirm the previous studies reporting that FTY720 or FTY720-P had any significant impact
